In patent publication US11571455B2, “Methods and compositions for treating alcoholic liver disease” (VANDERBILT UNIVERSITY, priority 2013, dated 2023):
Bridge positions count the residues as written; N and C are the ends. Peptide text beside a SMILES is read from it.

Assays:
[1] = test system: Staphylococcal enterotoxin B-induced systemic inflammation; conditions: mouse, in vivo
[2] = target: T1, importin α5/karyopherin α1 (/KPNA1/SRP1) (Homo sapiens, UniProt P52294); experiment: Binding to the nuclear import adaptor
T1 construct: SRP1/importin alpha 5 (karyopherin alpha1)/importin beta 1 heterodimer expressed in Jurkat T cells; endogenous in cells; host or cells: Jurkat T cells
Text: Inflammatory liver injury mediated by macrophages (Kupffer cells) or T cells depends on the nuclear import of SRTFs. SRTFs regulate the genome response to proinflammatory and proapoptotic cues. The mechanism of action of cell-penetrating peptides SN50 and its cyclized analog cSN50 that inhibit the nuclear import of SRTFs is shown herein. SN50 binds to a nuclear import adaptor protein termed importin α5/karyopherin α1 (/KPNA1/SRP1) and inhibits its function as a cytoplasmic/nuclear shuttle for SRTFs. […] However, prior to the present disclosure, it was not known how EtOH influences the importin α5/karyopherin α1 (/KPNA1/SRP1)—mediated signaling to the nucleus and genome response in hepatocytes induced by LPS or Con A. Also identified was another putative nuclear import adapter, termed SARM, which appears to participate in LPS-induced liver injury. […] Example 2: Nuclear Import of Stress-Responsive Transcription Factors (SRTFs) Is Required for Inflammatory and Apoptotic Gene Expression.
It is well-recognized that signaling to the nucleus plays a key role in the response of T lymphocytes to immune and inflammatory stimuli. […]

[3] = test system: nuclear import of NF-κB, AP-1, NFAT, and STAT1 in Jurkat T cells; assay type: cell-based, human

T1 sequence (P52294 whole entry): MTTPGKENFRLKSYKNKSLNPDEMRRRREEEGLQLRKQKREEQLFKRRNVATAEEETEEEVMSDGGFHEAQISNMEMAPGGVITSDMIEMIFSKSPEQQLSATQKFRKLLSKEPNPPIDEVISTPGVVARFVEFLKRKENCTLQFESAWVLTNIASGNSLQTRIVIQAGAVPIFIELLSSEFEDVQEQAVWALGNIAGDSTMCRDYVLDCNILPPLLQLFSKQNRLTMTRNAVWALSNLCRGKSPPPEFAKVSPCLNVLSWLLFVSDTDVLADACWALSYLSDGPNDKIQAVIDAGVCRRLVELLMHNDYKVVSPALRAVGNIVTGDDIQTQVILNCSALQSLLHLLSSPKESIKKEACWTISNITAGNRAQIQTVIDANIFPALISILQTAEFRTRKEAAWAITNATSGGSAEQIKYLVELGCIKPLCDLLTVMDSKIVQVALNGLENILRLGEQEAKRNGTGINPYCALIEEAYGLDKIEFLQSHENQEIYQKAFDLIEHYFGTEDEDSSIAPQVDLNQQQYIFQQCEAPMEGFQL
T1 sequence (Q14974 whole entry partner): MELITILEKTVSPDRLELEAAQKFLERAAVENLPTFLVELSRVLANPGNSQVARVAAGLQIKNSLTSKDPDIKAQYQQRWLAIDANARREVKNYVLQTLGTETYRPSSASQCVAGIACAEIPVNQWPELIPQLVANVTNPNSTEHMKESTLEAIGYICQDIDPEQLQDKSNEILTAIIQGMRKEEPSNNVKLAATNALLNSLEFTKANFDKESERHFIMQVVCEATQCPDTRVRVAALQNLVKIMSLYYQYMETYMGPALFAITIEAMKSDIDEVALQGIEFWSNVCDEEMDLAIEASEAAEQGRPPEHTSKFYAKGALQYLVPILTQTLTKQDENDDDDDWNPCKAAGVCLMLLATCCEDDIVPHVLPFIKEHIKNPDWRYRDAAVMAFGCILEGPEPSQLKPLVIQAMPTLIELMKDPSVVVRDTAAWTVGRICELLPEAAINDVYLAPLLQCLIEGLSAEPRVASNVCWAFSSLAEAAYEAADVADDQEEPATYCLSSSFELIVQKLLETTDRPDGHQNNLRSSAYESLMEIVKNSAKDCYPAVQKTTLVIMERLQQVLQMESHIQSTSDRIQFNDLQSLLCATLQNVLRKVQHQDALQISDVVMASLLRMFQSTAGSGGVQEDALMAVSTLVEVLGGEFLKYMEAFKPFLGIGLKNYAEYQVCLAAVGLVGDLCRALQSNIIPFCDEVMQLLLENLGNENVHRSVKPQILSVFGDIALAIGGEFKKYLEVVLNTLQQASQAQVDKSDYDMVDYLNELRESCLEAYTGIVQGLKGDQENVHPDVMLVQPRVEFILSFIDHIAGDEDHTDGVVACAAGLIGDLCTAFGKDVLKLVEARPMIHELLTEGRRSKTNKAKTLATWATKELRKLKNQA

Compound | undesirable side effects [1] | binding to importin α5/karyopherin α1 [2] | nuclear import of SRTFs [3]
CSCC[C@@H]1NC(=O)[C@H](CC(C)C)NC(=O)[C@H](CCCCN)NC(=O)[C@H](CCC(N)=O)NC(=O)[C@H](CCCNC(=N)N)NC(=O)[C@H](CCCCN)NC(=O)[C@H](CCCNC(=N)N)NC(=O)[C@H](CCC(N)=O)NC(=O)[C@H](C(C)C)NC(=O)[C@H](Cc2ccc(O)cc2)NC(=O)[C@@H](NC(=O)[C@@H]2CCCN2C(=O)[C@H](C)NC(=O)[C@H](CC(C)C)NC(=O)[C@H](CC(C)C)NC(=O)[C@H](C)NC(=O)[C@H](CC(C)C)NC(=O)[C@H](CC(C)C)NC(=O)[C@@H](NC(=O)[C@H](C)NC(=O)[C@@H]2CCCN2C(=O)[C@H](CC(C)C)NC(=O)[C@H](CC(C)C)NC(=O)[C@H](C)NC(=O)[C@@H](NC(=O)[C@H](C)NC(=O)[C@H](C)N)C(C)C)C(C)C)CSSC[C@@H](C(=O)O)NC(=O)[C@@H]2CCCN2C1=O [cSN50] (H-AAVALLPAVLLALLAPCYVQRKRQKLMPC-OH; disulfide 17-29; N-terminus and C-terminus assumed) | does not seem to cause undesirable side effects |  | 
AAVALLPAVLLALLAPVQRKRQKLMP [SN50, SSHR of K-FGF linked to NLS of NF-κB1 p50] |  | binds | prevents nuclear import of four SRTFs
